Measurements as given in ChEMBL document CHEMBL6078620, “Design and synthesis of visible light-activatable photocaged peroxides for optical control of ROS-mediated cellular signaling” (Bioorg Med Chem, 2024).
The source made the active and inactive calls. The rule behind the calls is not given here.

What was measured:
[1] = Photophysical property of the compound assessed as fluorescence quantum yield by UV-Visible spectrophotometric analysis; type: physicochemical
[2] = Chemical stability of compound in PBS buffer at pH 7.4 assessed as parent compound remaining measured after 60 mins by UHPLC analysis; type: physicochemical; conditions: read-out: Stability
HeLa [3] = assay: Cytotoxicity against human HeLa cells assessed as reduction in cell survival upto 50 uM by CCK-8 assay; type: functional; conditions: up to 50 µM
HeLa [4] = assay: Cytotoxicity against human HeLa cells assessed as reduction in cell survival upto 50 uM in presence of light irradiation by CCK-8 assay; type: functional; conditions: up to 50 µM
HeLa [5] = assay: Cytotoxicity against human HeLa cells at 25 uM by CCK-8 assay; type: functional, cell-based
HeLa [6] = assay: Cytotoxicity against human HeLa cells assessed as TBHP release by measuring fluorescence intensity at 10 uM incubated for 5 mins in presence of light irradiation at 375 to 455 nm by confocal fluorescence microscopic analysis; type: functional, cell-based
HeLa [7] = assay: Cytotoxicity against human HeLa cells assessed as TBHP release by measuring fluorescence intensity at 50 uM incubated for 5 mins in presence of light irradiation at 375 nm by confocal fluorescence microscopic analysis; type: functional, cell-based

Row | SMILES | Activity [1] | remaining at 1 h [2] | Activity (HeLa [3]) | Activity (HeLa [4]) | Activity (HeLa [5]) | Activity (HeLa [6]) | Activity (HeLa [7])
1 | CC(=O)OC(=O)OCc1cc(=O)oc2cc(O)c(Br)cc12 | 0.04 |  |  |  |  |  | 
2 | CC(C)(C)OOC(=O)OCc1cc(=O)oc2c3c(c(Br)cc12)NCC3 | 0.14 | 68% |  |  |  |  | 
3 | CC(C)(C)OOC(=O)OCc1cc(=O)oc2c3c(c(Br)cc12)NCCC3 | 0.082 | 50% | 63% | 46% | Active | Active | 
4 | CC(C)(C)OOC(=O)OCc1cc(=O)oc2cc(O)c(Br)cc12 | 0.13 | 45% |  |  |  |  | Active
